According to the supplement of paper PMC4862054:

Tests used:
Conditions in all cases: incubation time: 72 h
BT-474 [1] = experiment: normalised response (% of control), CellTox Green; higher = less cell death (100 = DMSO, 0 = benzethonium chloride kill control)
Procedure, shortened: (§1)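 The table gives the normalised signal for a single concentration in each entry. Breast cancer cell lines were seeded (20 µl suspension) into 384-well plates holding compound at 5 concentrations in 10-fold steps over a compound-specific 10,000-fold range and incubated 72 h, then read for CellTox Green fluorescence (485/520 nm) and CellTiter-Glo luminescence. Normalisation on each plate used 0.1 % DMSO (100) and a positive kill control (0).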

BT-549 [2] = experiment: as above
Procedure, shortened: as §1

CAL-120 [3] = experiment: as above
Procedure, shortened: as §1

CAL-148 [4] = experiment: as above
Procedure, shortened: as §1

CAL-51 [5] = experiment: as above
Procedure, shortened: as §1

CAL-85-1 [6] = experiment: as above
Procedure, shortened: as §1

DU-4475 [7] = experiment: as above
Procedure, shortened: as §1

HCC1143 [8] = experiment: as above
Procedure, shortened: as §1

HCC1599 [9] = experiment: as above
Procedure, shortened: as §1

HCC1937 [10] = experiment: as above
Procedure, shortened: as §1

HDQ-P1 [11] = experiment: as above
Procedure, shortened: as §1

Hs578T [12] = experiment: as above
Procedure, shortened: as §1

MCF-10A [13] = experiment: as above
Procedure, shortened: as §1

MDA-MB-231 [14] = experiment: as above
Procedure, shortened: as §1

MDA-MB-436 [15] = experiment: as above
Procedure, shortened: as §1

MDA-MB-453 [16] = experiment: as above
Procedure, shortened: as §1

MDA-MB-468 [17] = experiment: as above
Procedure, shortened: as §1

MFM-223 [18] = experiment: as above
Procedure, shortened: as §1

BT-474 [19] = experiment: normalised response (% of control), CellTiter-Glo; higher = more viable cells (100 = DMSO, 0 = benzethonium chloride kill control)
Procedure, shortened: as §1

BT-549 [20] = experiment: as above
Procedure, shortened: as §1

CAL-120 [21] = experiment: as above
Procedure, shortened: as §1

CAL-148 [22] = experiment: as above
Procedure, shortened: as §1

CAL-51 [23] = experiment: as above
Procedure, shortened: as §1

CAL-85-1 [24] = experiment: as above
Procedure, shortened: as §1

DU-4475 [25] = experiment: as above
Procedure, shortened: as §1

HCC1143 [26] = experiment: as above
Procedure, shortened: as §1

HCC1599 [27] = experiment: as above
Procedure, shortened: as §1

HCC1937 [28] = experiment: as above
Procedure, shortened: as §1

HDQ-P1 [29] = experiment: as above
Procedure, shortened: as §1

Hs578T [30] = experiment: as above
Procedure, shortened: as §1

MCF-10A [31] = experiment: as above
Procedure, shortened: as §1

MDA-MB-231 [32] = experiment: as above
Procedure, shortened: as §1

MDA-MB-436 [33] = experiment: as above
Procedure, shortened: as §1

MDA-MB-453 [34] = experiment: as above
Procedure, shortened: as §1

MDA-MB-468 [35] = experiment: as above
Procedure, shortened: as §1

MFM-223 [36] = experiment: as above
Procedure, shortened: as §1

SK-BR-3 = experiment: as above
Procedure, shortened: as §1

Row | Structure (SMILES) | normalised response (BT-474 [1]) | normalised response (BT-549 [2]) | normalised response (CAL-120 [3]) | normalised response (CAL-148 [4]) | normalised response (CAL-51 [5]) | normalised response (CAL-85-1 [6]) | normalised response (DU-4475 [7]) | normalised response (HCC1143 [8]) | normalised response (HCC1599 [9]) | normalised response (HCC1937 [10]) | normalised response (HDQ-P1 [11]) | normalised response (Hs578T [12]) | normalised response (MCF-10A [13]) | normalised response (MDA-MB-231 [14]) | normalised response (MDA-MB-436 [15]) | normalised response (MDA-MB-453 [16]) | normalised response (MDA-MB-468 [17]) | normalised response (MFM-223 [18]) | normalised response (BT-474 [19]) | normalised response (BT-549 [20]) | normalised response (CAL-120 [21]) | normalised response (CAL-148 [22]) | normalised response (CAL-51 [23]) | normalised response (CAL-85-1 [24]) | normalised response (DU-4475 [25]) | normalised response (HCC1143 [26]) | normalised response (HCC1599 [27]) | normalised response (HCC1937 [28]) | normalised response (HDQ-P1 [29]) | normalised response (Hs578T [30]) | normalised response (MCF-10A [31]) | normalised response (MDA-MB-231 [32]) | normalised response (MDA-MB-436 [33]) | normalised response (MDA-MB-453 [34]) | normalised response (MDA-MB-468 [35]) | normalised response (MFM-223 [36]) | normalised response (SK-BR-3)
1 | CN1CCC(COc2cnc(-c3cccc(Cn4nc(-c5cccc(C#N)c5)ccc4=O)c3)nc2)CC1 (100 nM) | 97.9% | 149% | 98.9% | 103% | 93.3% | 95.1% | 97.6% | 101% | 110% | 125% | 103% | 110% | 102% | 119% | 99.9% | 107% | 157% | 101% | 92.7% | 94% | 95.8% | 100% | 74% | 93.5% | 100% | 93.3% | 102% | 97.7% | 98.9% | 104% | 99.3% | 101% | 93.1% | 85.2% | 90.9% | 90.5% | 82.2%
2 | C=CCNC1=C2C[C@@H](C)C[C@H](OC)[C@H](O)[C@@H](C)/C=C(\C)[C@H](OC(N)=O)[C@@H](OC)/C=C\C=C(/C)C(=O)NC(=CC1=O)C2=O [Tanespimycin] (10 nM) | – | – | – | – | – | – | – | – | – | – | – | – | – | – | – | – | – | – | 90.4% | 98.3% | 97.9% | 96.4% | 120% | 100% | 105% | 105% | 94.4% | 96.5% | 98.2% | 94.4% | 105% | 101% | 92.6% | 92.8% | 94.2% | 101% | 103%
3 | CO[C@H]1C[C@@H]2CC[C@@H](C)[C@@](O)(O2)C(=O)C(=O)N2CCCC[C@H]2C(=O)O[C@H]([C@H](C)C[C@@H]2CC[C@@H](OC(=O)C(C)(CO)CO)[C@H](OC)C2)CC(=O)[C@H](C)/C=C(\C)[C@@H](O)[C@@H](OC)C(=O)[C@H](C)C[C@H](C)/C=C/C=C/C=C/1C [Temsirolimus] (0.01 nM) | – | – | – | – | – | – | – | – | – | – | – | – | – | – | – | – | – | – | 103% | 98.3% | 99.6% | 110% | 115% | 106% | 103% | 98.1% | 97% | 97.1% | 105% | 96.7% | 101% | 101% | 99.7% | 108% | 106% | 101% | 101%
4 | CO[C@H]1C[C@@H]2CC[C@@H](C)[C@@](O)(O2)C(=O)C(=O)N2CCCC[C@H]2C(=O)O[C@H]([C@H](C)C[C@@H]2CC[C@@H](OC(=O)C(C)(CO)CO)[C@H](OC)C2)CC(=O)[C@H](C)/C=C(\C)[C@@H](O)[C@@H](OC)C(=O)[C@H](C)C[C@H](C)/C=C/C=C/C=C/1C [Temsirolimus] (10 nM) | 103% | 134% | 101% | 90.9% | 107% | 95.8% | 95.5% | 84% | 101% | -57.4% | 97.4% | -83.2% | – | 124% | 102% | 107% | 103% | 75.2% | 83.3% | 55.1% | 67.8% | 62.1% | 55.5% | 67.9% | 74.8% | 63.9% | 109% | 74.4% | 77.4% | 70% | 87.7% | 93% | 79.9% | 53.5% | 62.1% | 70.7% | 60.7%
